The experiment concerns Helicoverpa zea. Briefly: Antifeedant activity against Helicoverpa zea (corn earworm) at 250 mg/ml at 28 degC day/24 degC night measured after 6 days. Format: functional, organism-based.

Calls of active or inactive are those of the source. The calls are words filed in the database; no cut-off is given here.

As for `O=C(O)c1ccc(O)cc1`, the outcome was inactive.

As to `Oc1ccc(C(O)c2ccc(O)cc2)cc1`, the result was inactive.

The record behind these values is ChEMBL document CHEMBL3044817, “Antifeedant and mosquitocidal compounds from Delphinium x cultorum cv. Magic fountains flowers” (J Agric Food Chem, 2000).
